Results published in ChEMBL document CHEMBL5500399, “Design, Synthesis, and Biological Evaluation of 1,2,4-Oxadiazole Derivatives Containing an Aryl Carboxylic Acid Moiety as Potent Sarbecovirus Papain-like Protease Inhibitors” (J Med Chem, 2024).
Activity calls are given as the source filed them. The calls are words filed in the database; no cut-off is given here.

Tests used:
[1] = target: T1, Replicase polyprotein 1ab (Severe acute respiratory syndrome coronavirus 2, UniProt P0DTD1); experiment: Inhibition of SARS-CoV2 PLpro using Z-RLRGG-AMC as substrate preincubated for 10 mins followed by substrate addition and measured after 20 sec shaking for 30 mins by time-resolved fluorescence assay
[2] = Metabolic stability in human hepatocytes assessed as half life at 1 uM measured upto 30 mins; format: ADME, cell-based, Hepatocyte
[3] = Metabolic stability in mouse hepatocytes assessed as half life at 1 uM measured upto 30 mins; format: ADME, cell-based, Hepatocyte
[4] = Metabolic stability in human hepatocytes assessed as intrinsic clearance per million cells at 1 uM measured upto 30 mins; format: ADME, cell-based, Hepatocyte; conditions: read-out: CLH
[5] = Metabolic stability in mouse hepatocytes assessed as intrinsic clearance per million cells at 1 uM measured upto 30 mins; format: ADME, cell-based, Hepatocyte; conditions: read-out: CLH
[6] = Metabolic stability in human hepatocytes assessed as compound remaining at 1 uM measured after 30 mins; format: ADME, cell-based, Hepatocyte; conditions: read-out: Stability
[7] = Metabolic stability in mouse hepatocytes assessed as compound remaining at 1 uM measured after 30 mins; format: ADME, cell-based, Hepatocyte; conditions: read-out: Stability
[8] = target: T1, Replicase polyprotein 1ab; experiment: Binding affinity to SARS-CoV2 PLpro by biolayer interferometry analysis
[9] = target: Replicase polyprotein 1ab (Severe acute respiratory syndrome coronavirus 2) (UniProt P0DTD1); experiment: Potency index, ratio of GRL0617 IC50 to test compound IC50 for inhibition of SARS-CoV2 PLpro
[10] = Cytotoxicity against african green monkey Vero E6 cells incubated for 48 hrs; format: toxicity, cell-based, Vero C1008; conditions: chlorocebus sabaeus
[11] = Metabolic stability in human liver microsomes assessed as half life; format: ADME, Microsome
[12] = Metabolic stability in human liver microsomes assessed as intrinsic clearance; format: ADME, Microsome; conditions: read-out: CLH
[13] = Metabolic stability in human liver microsomes assessed as half life at 1 uM preincubated for 5 mins followed by NADPH addition and measured after 30 mins by LC-MS/MS analysis; format: ADME, Microsome; conditions: time 35 min
[14] = Metabolic stability in CD-1 mouse liver microsomes assessed as half life at 1 uM preincubated for 5 mins followed by NADPH addition and measured after 30 mins by LC-MS/MS analysis; format: ADME, Microsome; conditions: time 35 min
[15] = Metabolic stability in human liver microsomes assessed as compound remaining at 1 uM preincubated for 5 mins followed by NADPH addition and measured after 30 mins by LC-MS/MS analysis; format: ADME, Microsome; conditions: read-out: Stability
[16] = Metabolic stability in CD-1 mouse liver microsomes assessed as compound remaining at 1 uM preincubated for 5 mins followed by NADPH addition and measured after 30 mins by LC-MS/MS analysis; format: ADME, Microsome; conditions: read-out: Stability
[17] = Half life in BALB/c mouse at 50 mg/kg, po measured upto 48 hrs by LC-MS/MS analysis; format: ADME, organism-based; conditions: in vivo
[18] = Tmax in BALB/c mouse at 50 mg/kg, po measured upto 48 hrs by LC-MS/MS analysis; format: ADME, organism-based; conditions: in vivo
[19] = Cmax in BALB/c mouse at 50 mg/kg, po measured upto 48 hrs by LC-MS/MS analysis; format: ADME, organism-based; conditions: in vivo
[20] = AUC(0 to t) in BALB/c mouse at 50 mg/kg, po measured upto 48 hrs by LC-MS/MS analysis; format: ADME, organism-based; conditions: in vivo
[21] = AUC(0 to infinity) in BALB/c mouse at 50 mg/kg, po measured upto 48 hrs by LC-MS/MS analysis; format: ADME, organism-based; conditions: in vivo
[22] = MRT(0 to t) in BALB/c mouse at 50 mg/kg, po measured upto 48 hrs by LC-MS/MS analysis; format: ADME, organism-based; conditions: in vivo
[23] = MRT(0 to infinity) in BALB/c mouse at 50 mg/kg, po measured upto 48 hrs by LC-MS/MS analysis; format: ADME, organism-based; conditions: in vivo
[24] = Oral bioavailability in BALB/c mouse at 50 mg/kg measured upto 48 hrs by LC-MS/MS analysis; format: ADME, organism-based; conditions: in vivo
[25] = Half life in BALB/c mouse at 5 mg/kg, iv measured upto 48 hrs by LC-MS/MS analysis; format: ADME, organism-based; conditions: in vivo
[26] = Tmax in BALB/c mouse at 5 mg/kg, iv measured upto 48 hrs by LC-MS/MS analysis; format: ADME, organism-based; conditions: in vivo
[27] = Cmax in BALB/c mouse at 5 mg/kg, iv measured upto 48 hrs by LC-MS/MS analysis; format: ADME, organism-based; conditions: in vivo
[28] = AUC(0 to t) in BALB/c mouse at 5 mg/kg, iv measured upto 48 hrs by LC-MS/MS analysis; format: ADME, organism-based; conditions: in vivo
[29] = AUC(0 to infinity) in BALB/c mouse at 5 mg/kg, iv measured upto 48 hrs by LC-MS/MS analysis; format: ADME, organism-based; conditions: in vivo
[30] = MRT(0 to t) in BALB/c mouse at 5 mg/kg, iv measured upto 48 hrs by LC-MS/MS analysis; format: ADME, organism-based; conditions: in vivo
[31] = MRT(0 to infinity) in BALB/c mouse at 5 mg/kg, iv measured upto 48 hrs by LC-MS/MS analysis; format: ADME, organism-based; conditions: in vivo
[32] = Clearance in BALB/c mouse at 5 mg/kg, iv measured upto 48 hrs by LC-MS/MS analysis; format: ADME, organism-based; conditions: in vivo
[33] = target: Replicase polyprotein 1ab (Severe acute respiratory syndrome coronavirus 2) (UniProt P0DTD1); experiment: Inhibition of SARS-CoV2 PLpro cleavage activity using 2Ub-K48 as substrate incubated overnight by SYPRO Ruby staining based SDS-PAGE analysis
[34] = target: Replicase polyprotein 1ab (Severe acute respiratory syndrome coronavirus 2) (UniProt P0DTD1); experiment: Inhibition of RLRGG binding to SARS-CoV2 PLpro
[35] = system: Severe acute respiratory syndrome-related coronavirus; experiment: Inhibition of SARS-CoV PLpro using Z-RLRGG-AMC as substrate preincubated for 10 mins followed by substrate addition and measured after 20 sec shaking for 30 mins by time-resolved fluorescence assay
[36] = target: Replicase polyprotein 1ab (Middle East respiratory syndrome-related coronavirus (isolate UnitedKingdom/H123990006/2012) (Betacoronavirus England 1) (Humancoronavirus EMC)) (UniProt K9N7C7); experiment: Inhibition of MERS-CoV PLpro using Z-RLRGG-AMC as substrate preincubated for 10 mins followed by substrate addition and measured after 20 sec shaking for 30 mins by time-resolved fluorescence assay; conditions: time 40.3 min
[37] = target: Replicase polyprotein 1ab (Severe acute respiratory syndrome coronavirus 2) (UniProt P0DTD1); experiment: Binding affinity to SARS-CoV2 PLpro assessed as stabilization by measuring increase melting temperature by thermal shift assay

SMILES | IC50 [1] | half-life at 1 µM [2] | half-life at 1 µM [3] | hepatocyte CLint at 1 µM [4] | hepatocyte CLint at 1 µM [5] | remaining at 0.5 h, 1 µM [6] | remaining at 0.5 h, 1 µM [7] | Kd [8] | CC50 at 48 h [10] | half-life at 1 µM [13] | half-life at 1 µM [14] | remaining at 0.5 h, 1 µM [15] | remaining at 0.5 h, 1 µM [16] | inhibition [33] | inhibition [34] | inhibition [35] | inhibition [36] | other results
CC(c1nc(-c2cc(NCc3ccc(C(=O)O)cc3)cc(C(F)(F)F)c2)no1)c1cccc2ccccc12 (stereo not drawn) | 0.2 µM | 0.608 h | 0.278 h | 19 µL/min/1e6 cells | 41.5 µL/min/1e6 cells | 56.6% | 28.8% | 13.6 µM | – | – | – | – | – | – | – | – | – | –
CC(c1nc(-c2cc(NCc3ccc(C(=O)O)s3)cc(C(F)(F)F)c2)no1)c1cccc2ccccc12 (stereo not drawn) | 0.1 µM | 1.54 h | 0.898 h | 7.5 µL/min/1e6 cells | 12.9 µL/min/1e6 cells | 79.8% | 68% | 13.6 µM | – | – | – | – | – | – | – | – | – | Ratio IC50 [9]: 10
Cc1ccc(N)cc1C(=O)N[C@H](C)c1cccc2ccccc12 | – | 0.75 h | 0.127 h | 15.4 µL/min/1e6 cells | 91.5 µL/min/1e6 cells | 63% | 6.4% | – | 253 µM | – | – | – | – | – | – | – | – | half-life [11]: 0.44 h; CLint scaled [12]: 27 mL/min/kg
CC(c1nc(-c2ccc(-c3ccc(C(=O)O)s3)cc2)no1)c1cccc2ccccc12 (stereo not drawn) | 1.8 µM | – | – | – | – | – | – | 13.6 µM | 170 µM | > 1.55 h | > 1.55 h | 82.1% | 101% | Active | Active | Active | Active | half-life [17]: 6.5 h; Tmax [18]: 0.88 h; Cmax [19]: 3670 ng/mL; AUC(0-t) at 48 h [20]: 17400 ng·h/mL; AUC(0-inf) [21]: 17500 ng·h/mL; MRT last at 48 h [22]: 8.05 h; MRT inf [23]: 8.29 h; bioavailability [24]: 4.8%; half-life [25]: 5.8 h; Tmax [26]: 0.17 h; Cmax [27]: 14200 ng/mL; AUC(0-t) at 48 h [28]: 36300 ng·h/mL; AUC(0-inf) [29]: 36300 ng·h/mL; MRT last at 48 h [30]: 5.04 h; MRT inf [31]: 5.12 h; clearance [32]: 2.35 mL/min/kg; Activity [37]: Active
Cc1ccc(-c2noc(C(C)c3cccc(Oc4ccccc4)c3)n2)cc1NCc1ccc(C(=O)O)s1 (stereo not drawn) | 4.4 µM | – | – | – | – | – | – | – | – | > 1.55 h | > 1.55 h | 87% | 80% | Active | Active | Active | Active | –
Cc1ccc(-c2noc(C(C)c3cccc4ccccc34)n2)cc1NCc1ccc(C(=O)O)s1 (stereo not drawn) | 0.1 µM | – | – | – | – | – | – | – | – | – | – | – | – | – | – | – | – | Ratio IC50 [9]: 10
Cc1ccc(-c2noc(C(C)c3ccc(-c4ccccc4)c(F)c3)n2)cc1NCc1ccc(C(=O)O)s1 (racemic) | 1 µM | – | – | – | – | – | – | 13.6 µM | 124 µM | > 1.55 h | > 1.55 h | 101% | 99.1% | Active | Active | Active | Active | half-life [17]: 2.53 h; Tmax [18]: 1.25 h; Cmax [19]: 10200 ng/mL; AUC(0-t) at 48 h [20]: 24300 ng·h/mL; AUC(0-inf) [21]: 24400 ng·h/mL; MRT last at 48 h [22]: 2.19 h; MRT inf [23]: 2.72 h; bioavailability [24]: 39.1%; half-life [25]: 4.2 h; Tmax [26]: 0.05 h; Cmax [27]: 10600 ng/mL; AUC(0-t) at 48 h [28]: 6210 ng·h/mL; AUC(0-inf) [29]: 6260 ng·h/mL; MRT last at 48 h [30]: 2.74 h; MRT inf [31]: 2.96 h; clearance [32]: 13.5 mL/min/kg
CC(c1nc(-c2ccc(NCc3ccc(C(=O)O)s3)cc2)no1)c1cccc2ccccc12 (stereo not drawn) | 0.2 µM | – | – | – | – | – | – | 13.6 µM | – | > 1.55 h | > 1.55 h | 102% | 93.8% | Active | Active | Active | Active | Activity [37]: Active
